Reference: ChEMBL document CHEMBL2069188, “Structural requirements for the antitubercular quaternized triflupromazine pharmacophore” (Bioorg Med Chem Lett, 2012)
Values after ≈ are worked out from the molar mass of the structure shown.

Tests used:
[1] = tested on: Mycobacterium tuberculosis; test: Antitubercular activity against Mycobacterium tuberculosis H37Rv by microplate alamar blue assay; type: functional
Vero = test: Cytotoxicity against african green monkey Vero cells […] after 3 days; type: cell-based; conditions: Chlorocebus sabaeus, 72 h
[2] = Selectivity index, ratio of IC50 for african green monkey Vero cells to MIC for Mycobacterium tuberculosis H37Rv; type: functional

Row | Compound | MIC90 [1] | IC50 (Vero) | Selectivity Index [2]
1 | C[N+](C)(CCCN1c2ccccc2Sc2ccc(C(F)(F)F)cc21)Cc1ccc(Br)cc1.[Br-] | 6 µM | > 128 µM | >21
2 | C[N+](C)(CCCN1c2ccccc2Sc2ccc(C(F)(F)F)cc21)Cc1ccc(I)cc1.[Br-] | 5.9 µM | 92.7 µM | >16
3 | FC(F)(F)c1ccc2c(c1)N(Cc1cn(Cc3ccc(Cl)cc3)nn1)c1ccccc1S2 | > 100 µM | > 128 µM | 
4 | CCCC[N+](C)(C)CCCN1c2ccccc2Sc2ccc(C(F)(F)F)cc21 | 53.2 µM |  | 
5 | C#CC[N+](C)(C)CCCN1c2ccccc2Sc2ccc(C(F)(F)F)cc21 | 121 µM |  | 
6 | C[N+](C)(CC#N)CCCN1c2ccccc2Sc2ccc(C(F)(F)F)cc21 | > 128 µM |  | 
7 | C=CC[N+](C)(C)CCCN1c2ccccc2Sc2ccc(C(F)(F)F)cc21 | > 128 µM |  | 
8 | C=CC[N+](C)(C)CCCN1c2ccccc2Sc2ccccc21 | > 128 µM |  | 
9 | C#CC[N+](C)(C)CCCN1c2ccccc2Sc2ccccc21 | > 128 µM |  | 
10 | C[N+](C)(CCCN1c2ccccc2Sc2ccc(C(F)(F)F)cc21)Cc1ccc(F)cc1.[Cl-] | 11.9 µM | > 128 µM | >11
11 | C[N+](C)(CCCN1c2ccccc2Sc2ccc(C(F)(F)F)cc21)Cc1ccc(Cl)cc1.[Cl-] | 9 µM | > 128 µM | >14
12 | CO[C@H]1/C=C/O[C@@]2(C)Oc3c(C)c(O)c4c(O)c(c(/C=N/N5CCN(C)CC5)c(O)c4c3C2=O)NC(=O)/C(C)=C\C=C\[C@H](C)[C@H](O)[C@@H](C)[C@@H](O)[C@@H](C)[C@H](OC(C)=O)[C@@H]1C [RIFAMPIN] | 0.09 µM (≈ 0.0741 µg/mL) | > 100 µM | >909
